According to patent US4536402A, “Vinylogous carboxamides” (Dr. Karl Thomae Gesellschaft mit beschranter Haftung, priority 1982, dated 1985):
Where two headings read alike, the source gives them in different places. Blank lines part the entries; values can stand above or below the molecule they belong to.

Tests used:
[1] = tested on: tonic extensor spasm in the back legs of male mice subjected to maximum electric shock; test: Anticonvulsant activity in mice: inhibition of tonic extensor spasm after maximum electric shock; assay type: in vivo, male SPF mice (Chbb:NMRI); settings: Mus musculus, oral
Protocol: The anticonvulsant activity was tested by measuring the inhibition of tonic extensor spasm in the back legs of male mice subjected to maximum electric shock.
The test animals used were male SPF mice (Chbb:NMRI) weighing from 20-26 gm which had access to standard food and drinking water up to one hour before the oral administration of the test substance.
The test was carried out using the method described by Swinyard, Brown and Goodman (J. Pharmacol. Exp. Ther. 106, 319, [1952]). The electric shock apparatus was constructed in accordance with the specifications provided by Woodbury and Davenport (Arch. Int. Pharmacodyn. 92, 97, [1952]). The electrical stimuli were administered to the animals' temples above their eyes, through steel ball electrodes covered with chamois and moistened with 0.9% NaCl solution. The stimuli were administered using alternating current, 50 Hz and 50 mA, with a duration of 0.2 sec.
The substance to be tested was suspended in 1% tylose mucilage and administered orally in a volume of 0.1 ml/10 gm body weight of the mice, each dosage being administered to 10 mice. The animals were given the shocks 30, 150 and 300 minutes after the administration of the test substance, and the ED50 values were determined graphically or by using the method of Litchfield and Wilcoxon (J. Pharmacol. Exp. Ther. 96, 99, [1949]) from the dosage which protects 50% of the animals from the tonic extension spasm of the rear extremities.

[2] = tested on: fatty and cartilaginous tissue (kidney fat and sternum); settings: known compound, general statement; cited from earlier work
[3] = tested on: fatty and cartilaginous tissue (kidney fat and sternum); test: Tests for yellow coloration of fatty and cartilaginous tissue in the rat; assay type: in vivo, male rats, Chbb:THOM (SPF)
Protocol: The yellow coloration of fatty and cartilaginous tissue following the oral administration of 50 and 400 mg/kg of compound E and compound A once a day over a period of 51/2 weeks was investigated. The compounds were homogeneously suspended in 1.5% tylose by several hours' stirring. The compounds were administered through an esophageal tube. The volume administered was about 1.4 ml. 9 to 11 male rats [of the Chbb:THOM (SPF) strain] with a body weight of 263±10 gm were used for each dose. At different times, animals were taken from the four treated groups and one control group and the kidney fat and sternum were removed after the animal had been bled from the abdominal aorta.

rat = test: Acute toxicity in the rat, p.o.; assay type: in vivo; settings: for Animals which died in 14 days: N=10
From the text: (§1) Acute toxicity in the rat, compound A, p.o.

[4] = Acute toxicity in the rat, p.o.; assay type: in vivo; settings: in vivo; for mortality at 336 h: N=10, read-out: Animals which died in 14 days, %
From the text: as §1

[5] = tested on: tonic extensor spasms in the back legs of male rats subjected to maximum electric shock; test: Anticonvulsant activity in rats: inhibition of tonic extensor spasms after maximum electric shock; assay type: in vivo, male SPF rats (Chbb:THOM); settings: for % protected / animals protected: N=6, one hour
Protocol: The anticonvulsant activity was tested by measuring the inhibition of tonic extensor spasms in the back legs of male rats subjected to maximum electric shock.
The test animals used were male SPF rats (Chbb:THOM) weighing from 100-120 gm which had access to standard food and drinking water up to one hour before the oral administration of the test substance.
The test was carried out using the method described by Swinyard, Brown and Goodman (J. Pharmacol. Exp. Ther. 106, 319, [1952]). The electric shock apparatus was constructed in accordance with the specifications provided by Woodbury and Davenport (Arch. Int. Pharmacodyn. 92, 97 [1952]). The electrical stimuli were applied to the temples above the eyes, using moistened steel ball electrodes. The parameters of the stimuli were as follows: alternating current 50 Hz, 50 mA, duration of stimulus 0.2 sec. In all the control animals, clonic and then tonic extension spasm of the extremities occurred; the latter can be prevented by means of effective anticonvulsant agents.
The substance to be tested was suspended in 2% tylose mucilage and administered orally, in a volume of 1 ml/100 gm body weight of the rat, in dosages of 1.56, 3.125, 6.25 and 12.5 mg/kg, each dose being administered to 6 rats. One hour later, the animals were subjected to electric shock and the ED50 was calculated as the dosage which protected 50% of the animals against tonic extension spasms in the rear extremities, with confidence limits for a 5% probability of error.

mice = test: Approximate acute toxicity in mice, p.o.; assay type: in vivo; settings: for Number of animals which died in 14 days: mice
From the text: (§2) Approximate acute toxicity in mice, compound A, p.o.

[6] = Approximate acute toxicity in mice, p.o.; assay type: in vivo; settings: in vivo; mouse, oral, 14 days
From the text: as §2

[7] = 0.5 h, shock 30 minutes after administration
[8] = 2.5 h, shock 150 minutes after administration
[9] = 5 h, shock 300 minutes after administration
[10] = 50 mg/kg oral once a day, 17 days
[11] = 50 mg/kg oral once a day, 36 days
[12] = 50 mg/kg oral once a day, 38 days
[13] = 50 mg/kg oral once a day, 39 days
[14] = 400 mg/kg oral once a day, 2 days
[15] = 400 mg/kg oral once a day, 4 days
[16] = 400 mg/kg oral once a day, 9 days
[17] = 400 mg/kg oral once a day, 17 days
[18] = 400 mg/kg oral once a day, 36 days
[19] = 400 mg/kg oral once a day, 38 days
[20] = 400 mg/kg oral once a day, 39 days

SMILES: CCN/C(=C1\C(=O)c2ccccc2[S+]1[O-])c1ccccc1 (centres unmarked) [C, (E)-2-[(ethylamino)phenylmethylene]-benzo[b]thiophen-3(2H)-one-1-oxide]
ED50 [1, 7]: 17.1 mg/kg
ED50 [1, 8]: 61 mg/kg
ED50 [1, 9]: 93.9 mg/kg

Number of animals with yellow kidney fat and sternum (number of animals dissected in brackets) [3, 10]: 0 (1) animals
Number of animals with yellow kidney fat and sternum (number of animals dissected in brackets) [3, 11]: 0 (1) animals
Number of animals with yellow kidney fat and sternum (number of animals dissected in brackets) [3, 12]: 0 (1) animals
Number of animals with yellow kidney fat and sternum (number of animals dissected in brackets) [3, 13]: 0 (6) animals
Number of animals with yellow kidney fat and sternum (number of animals dissected in brackets) [3, 14]: 0 (1) animals
Number of animals with yellow kidney fat and sternum (number of animals dissected in brackets) [3, 15]: 0 (1) animals
Number of animals with yellow kidney fat and sternum (number of animals dissected in brackets) [3, 16]: 0 (1) animals
Number of animals with yellow kidney fat and sternum (number of animals dissected in brackets) [3, 17]: 1 (1) animals
degree of yellow coloration of kidney fat and sternum [3, 17]: very slight
Number of animals with yellow kidney fat and sternum (number of animals dissected in brackets) [3, 18]: 1 (1) animals
degree of yellow coloration of kidney fat and sternum [3, 18]: marked
Number of animals with yellow kidney fat and sternum (number of animals dissected in brackets) [3, 19]: 1 (1) animals
degree of yellow coloration of kidney fat and sternum [3, 19]: marked
Number of animals with yellow kidney fat and sternum (number of animals dissected in brackets) [3, 20]: 5 (5) animals
degree of yellow coloration of kidney fat and sternum [3, 20]: marked
yellow coloration of the kidney fat and sternum ([3]; 400 mg/kg, from the 17th day p.a.): slight at first but became marked later
SMILES: N/C(=C1/Sc2ccccc2C1=O)c1ccccc1 [Compound E, (E)-2-[(amino)phenylmethylene]-benzo[b]thiophen-3(2H)-one]
undesirable side effect: yellow coloration of fatty and cartilaginous tissue [2]: strong yellow coloration

SMILES: N/C(=C1\C(=O)c2ccccc2[S+]1[O-])c1ccccc1 (centres unmarked) [Compound A, (E)-2-[(amino)phenylmethylene]-benzo[b]thiophen-3(2H)-one-1-oxide]
Animals which died in 14 days (rat; 1000 mg/kg p.o.): 0 animals
Animals which died in 14 days (rat; 2000 mg/kg p.o.): 4 animals
Animals which died in 14 days (rat; 4000 mg/kg p.o.): 7 animals
toxic effects (rat; in vivo, po): only had toxic effects in very large dosages
LD50 at 336 h ([4]; oral, 14 days, read-out: LD50 (confidence limits, p≤0.05)): 2600 mg/kg
mortality at 336 h ([4]; po, 1000 mg/kg p.o.): 0%
mortality at 336 h ([4]; po, 2000 mg/kg p.o.): 40%
mortality at 336 h ([4]; po, 4000 mg/kg p.o.): 70%
therapeutic index (LD50/ED50) ([4]; po, LD50 / ED50, read-out: average toxic dose relative to average therapeutic dose): 800
% protected ([5]; 1.56 mg/kg p.o.): 0%
animals protected ([5]; 1.56 mg/kg p.o.): 0 animals
% protected ([5]; 3.125 mg/kg p.o.): 67%
animals protected ([5]; 3.125 mg/kg p.o.): 4 animals
% protected ([5]; 6.25 mg/kg p.o.): 83%
animals protected ([5]; 6.25 mg/kg p.o.): 5 animals
% protected ([5]; 12.5 mg/kg p.o.): 100%
animals protected ([5]; 12.5 mg/kg p.o.): 6 animals
ED50 ([5]; Rattus norvegicus, 1 h, oral, one hour, read-out: ED50 (confidence limits, p≤0.05)): 3.25 mg/kg
ED50 [1, 7]: 12.5 mg/kg
ED50 [1, 8]: 35 mg/kg
ED50 [1, 9]: 88 mg/kg
Number of animals which died in 14 days (mice; 500 mg/kg p.o., N=10): 0 animals
Number of animals which died in 14 days (mice; 1000 mg/kg p.o., N=16): 1 animals
Number of animals which died in 14 days (mice; 1410 mg/kg p.o., N=10): 0 animals
Number of animals which died in 14 days (mice; 2000 mg/kg p.o., N=10): 2 animals
Number of animals which died in 14 days (mice; 4000 mg/kg p.o., N=10): 1 animals
tolerance (mice; mouse, in vivo, po): well tolerated
LD50 at 336 h [6]: > 4000 mg/kg
Number of animals with yellow kidney fat and sternum (number of animals dissected in brackets) [3, 10]: 0 (1) animals
Number of animals with yellow kidney fat and sternum (number of animals dissected in brackets) [3, 11]: 0 (1) animals
Number of animals with yellow kidney fat and sternum (number of animals dissected in brackets) [3, 12]: 0 (1) animals
Number of animals with yellow kidney fat and sternum (number of animals dissected in brackets) [3, 13]: 0 (6) animals
Number of animals with yellow kidney fat and sternum (number of animals dissected in brackets) [3, 14]: 0 (1) animals
Number of animals with yellow kidney fat and sternum (number of animals dissected in brackets) [3, 15]: 0 (1) animals
Number of animals with yellow kidney fat and sternum (number of animals dissected in brackets) [3, 16]: 0 (1) animals
Number of animals with yellow kidney fat and sternum (number of animals dissected in brackets) [3, 17]: 0 (1) animals
Number of animals with yellow kidney fat and sternum (number of animals dissected in brackets) [3, 18]: 0 (1) animals
Number of animals with yellow kidney fat and sternum (number of animals dissected in brackets) [3, 19]: 0 (1) animals
Number of animals with yellow kidney fat and sternum (number of animals dissected in brackets) [3, 20]: 0 (2) animals

SMILES: N/C(=C1\C(=O)c2ccccc2[S+]1[O-])c1ccccc1Cl (centres unmarked) [B, (E)-2-[(amino)-2-chlorophenylmethylene]-benzo[b]thiophen-3(2H)-one-1-oxide]
ED50 [1, 7]: 8.1 mg/kg
ED50 [1, 8]: 7.4 mg/kg
ED50 [1, 9]: 8.3 mg/kg
